Measured values from ChEMBL document CHEMBL4118122, “Identification and biological evaluation of thiazole-based inverse agonists of RORγt” (Bioorg Med Chem Lett, 2018).
pKd: −log10 of the molar value. ≈ marks a conversion by molar mass, not a printed value.

What was measured:
[1] = Thermodynamic solubility of the compound in 30 mM phosphate buffer at 10 mM at pH 7 after 2 to 5 days by UV-HPLC analysis; format: physicochemical; conditions: read-out: Therm_solubility
[2] = Half life in human microsomes; format: ADME, Microsome
[3] = Thermodynamic solubility of the compound in fasted state simulated intestinal […] after 2 to 5 days by UV-HPLC analysis; format: physicochemical; conditions: read-out: Therm_solubility
[4] = molecular target: Cytochrome P450 2D6 (Homo sapiens, UniProt P10635); test: Inhibition of CYP2D6 (unknown origin); format: ADME
Chain of Cytochrome P450 2D6 (P10635 whole entry): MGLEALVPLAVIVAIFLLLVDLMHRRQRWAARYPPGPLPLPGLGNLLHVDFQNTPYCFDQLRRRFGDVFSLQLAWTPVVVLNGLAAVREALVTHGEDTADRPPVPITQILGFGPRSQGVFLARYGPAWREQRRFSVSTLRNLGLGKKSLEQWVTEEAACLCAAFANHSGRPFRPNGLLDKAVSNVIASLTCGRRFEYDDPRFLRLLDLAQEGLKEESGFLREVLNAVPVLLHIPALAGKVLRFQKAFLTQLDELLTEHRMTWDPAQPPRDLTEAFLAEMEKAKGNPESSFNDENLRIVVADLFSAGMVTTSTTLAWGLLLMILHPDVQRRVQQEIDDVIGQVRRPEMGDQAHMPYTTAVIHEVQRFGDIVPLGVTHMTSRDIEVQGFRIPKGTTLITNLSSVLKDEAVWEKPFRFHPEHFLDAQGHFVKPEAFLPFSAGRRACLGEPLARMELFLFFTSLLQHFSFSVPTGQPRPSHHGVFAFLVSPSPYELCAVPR

[5] = molecular target: Cytochrome P450 3A4 (Homo sapiens, UniProt P08684); test: Inhibition of CYP3A4 (unknown origin); format: ADME
Chain of Cytochrome P450 3A4 (P08684 whole entry): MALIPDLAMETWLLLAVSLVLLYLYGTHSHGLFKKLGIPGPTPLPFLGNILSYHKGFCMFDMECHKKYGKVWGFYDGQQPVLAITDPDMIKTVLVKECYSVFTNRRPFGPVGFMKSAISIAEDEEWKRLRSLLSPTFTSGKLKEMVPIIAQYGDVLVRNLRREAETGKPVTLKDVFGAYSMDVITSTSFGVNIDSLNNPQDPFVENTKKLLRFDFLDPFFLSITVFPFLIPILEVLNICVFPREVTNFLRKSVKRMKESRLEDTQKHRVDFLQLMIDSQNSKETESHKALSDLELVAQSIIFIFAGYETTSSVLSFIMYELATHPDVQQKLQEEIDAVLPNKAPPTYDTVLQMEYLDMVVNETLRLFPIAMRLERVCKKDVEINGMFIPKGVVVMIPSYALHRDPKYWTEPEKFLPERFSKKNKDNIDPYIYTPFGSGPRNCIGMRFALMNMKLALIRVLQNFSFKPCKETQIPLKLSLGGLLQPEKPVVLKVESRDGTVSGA

[6] = molecular target: T1, Cytochrome P450 2C8 (Homo sapiens, UniProt P10632); test: Inhibition of CYP2C8 (unknown origin); format: ADME
T1 sequence (P10632 whole entry): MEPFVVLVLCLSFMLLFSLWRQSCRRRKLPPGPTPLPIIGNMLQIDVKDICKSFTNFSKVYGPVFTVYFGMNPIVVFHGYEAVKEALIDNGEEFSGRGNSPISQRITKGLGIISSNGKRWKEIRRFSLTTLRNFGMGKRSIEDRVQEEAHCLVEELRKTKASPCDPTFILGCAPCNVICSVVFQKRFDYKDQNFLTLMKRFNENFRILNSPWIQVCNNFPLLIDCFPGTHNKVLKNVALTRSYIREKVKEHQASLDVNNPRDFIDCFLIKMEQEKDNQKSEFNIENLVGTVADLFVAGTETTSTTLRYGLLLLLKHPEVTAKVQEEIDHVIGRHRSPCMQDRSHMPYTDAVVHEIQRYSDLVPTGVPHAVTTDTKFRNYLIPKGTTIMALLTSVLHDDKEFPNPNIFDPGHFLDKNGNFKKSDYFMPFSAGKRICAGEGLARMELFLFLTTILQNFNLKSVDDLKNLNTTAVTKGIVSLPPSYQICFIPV

[7] = molecular target: T2, PXR (NR1I2) (Homo sapiens, UniProt O75469); test: […] at PXR LBD (unknown origin) expressed in HEK293 cells […] at 1 uM after 16 hrs by luciferase reporter gene assay relative to rifampicin; format: ADME, cell-based; conditions: HEK293 cells expressing PXR LBD, read-out: Efficacy
T2 sequence (O75469 whole entry): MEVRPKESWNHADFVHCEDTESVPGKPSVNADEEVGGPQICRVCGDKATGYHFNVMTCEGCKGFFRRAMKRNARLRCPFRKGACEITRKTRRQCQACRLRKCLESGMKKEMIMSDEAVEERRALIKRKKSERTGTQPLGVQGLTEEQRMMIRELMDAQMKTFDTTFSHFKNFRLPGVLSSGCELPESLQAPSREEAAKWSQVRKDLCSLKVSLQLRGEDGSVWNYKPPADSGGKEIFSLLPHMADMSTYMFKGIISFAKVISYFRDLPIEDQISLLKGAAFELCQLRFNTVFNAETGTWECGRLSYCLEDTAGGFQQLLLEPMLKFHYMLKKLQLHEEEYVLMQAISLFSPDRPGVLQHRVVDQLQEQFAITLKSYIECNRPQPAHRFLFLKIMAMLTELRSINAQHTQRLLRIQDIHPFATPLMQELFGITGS

[8] = molecular target: Cytochrome P450 2C19 (Homo sapiens, UniProt P33261); test: Inhibition of CYP2C19 (unknown origin); format: ADME
Chain of Cytochrome P450 2C19 (P33261 whole entry): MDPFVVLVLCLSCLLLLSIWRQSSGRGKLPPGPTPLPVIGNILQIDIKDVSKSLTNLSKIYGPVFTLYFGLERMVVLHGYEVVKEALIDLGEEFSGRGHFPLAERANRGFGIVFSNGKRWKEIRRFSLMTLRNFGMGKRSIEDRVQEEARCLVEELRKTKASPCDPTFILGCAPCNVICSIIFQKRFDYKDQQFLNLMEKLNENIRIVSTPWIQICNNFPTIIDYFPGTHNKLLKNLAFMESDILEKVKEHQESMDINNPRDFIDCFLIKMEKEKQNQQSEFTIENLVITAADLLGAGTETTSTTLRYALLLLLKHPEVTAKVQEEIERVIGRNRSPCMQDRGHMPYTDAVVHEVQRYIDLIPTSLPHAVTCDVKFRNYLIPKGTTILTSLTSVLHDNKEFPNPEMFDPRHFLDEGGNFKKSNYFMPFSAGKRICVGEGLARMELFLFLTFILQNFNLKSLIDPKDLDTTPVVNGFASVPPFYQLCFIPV

[9] = molecular target: Cytochrome P450 2C9 (Homo sapiens, UniProt P11712); test: Inhibition of CYP2C9 (unknown origin); format: ADME
Chain of Cytochrome P450 2C9 (P11712 whole entry): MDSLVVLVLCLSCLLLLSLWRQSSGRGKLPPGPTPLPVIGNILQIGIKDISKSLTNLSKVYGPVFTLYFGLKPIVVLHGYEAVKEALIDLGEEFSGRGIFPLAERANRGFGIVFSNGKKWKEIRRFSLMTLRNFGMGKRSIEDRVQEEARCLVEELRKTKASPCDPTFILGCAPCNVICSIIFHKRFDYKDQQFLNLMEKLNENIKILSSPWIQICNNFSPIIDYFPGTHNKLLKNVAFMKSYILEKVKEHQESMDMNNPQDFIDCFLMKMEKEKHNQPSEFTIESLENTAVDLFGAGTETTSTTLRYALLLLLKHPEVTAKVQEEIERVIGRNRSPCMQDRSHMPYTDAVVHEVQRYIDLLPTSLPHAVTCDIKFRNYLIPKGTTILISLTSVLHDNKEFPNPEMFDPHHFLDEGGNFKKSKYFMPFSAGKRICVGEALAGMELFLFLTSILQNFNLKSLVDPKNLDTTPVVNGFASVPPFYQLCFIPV

[10] = molecular target: T3, Cytochrome P450 1A2 (Homo sapiens, UniProt P05177); test: Inhibition of CYP1A2 (unknown origin); format: ADME
T3 sequence (P05177 whole entry): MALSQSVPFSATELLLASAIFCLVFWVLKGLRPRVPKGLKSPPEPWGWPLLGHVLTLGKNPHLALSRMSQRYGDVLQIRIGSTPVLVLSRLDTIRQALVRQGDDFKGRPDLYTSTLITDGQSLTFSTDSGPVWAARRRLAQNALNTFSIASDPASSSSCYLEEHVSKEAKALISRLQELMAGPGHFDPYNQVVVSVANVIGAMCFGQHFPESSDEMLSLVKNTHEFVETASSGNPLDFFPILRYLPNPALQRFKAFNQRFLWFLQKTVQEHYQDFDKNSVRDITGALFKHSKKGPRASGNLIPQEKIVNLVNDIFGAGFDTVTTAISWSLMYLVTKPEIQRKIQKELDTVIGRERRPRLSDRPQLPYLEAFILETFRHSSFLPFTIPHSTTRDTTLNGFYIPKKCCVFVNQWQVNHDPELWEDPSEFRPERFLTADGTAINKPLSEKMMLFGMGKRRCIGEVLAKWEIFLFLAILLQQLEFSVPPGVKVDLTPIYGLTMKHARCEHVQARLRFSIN

[11] = Half life in rat microsomes; format: ADME, Microsome
[12] = molecular target: T2, PXR (NR1I2); test: […] at PXR LBD (unknown origin) expressed in HEK293 cells […] at 10 uM after 16 hrs by luciferase reporter gene assay relative to rifampicin; format: ADME, cell-based; conditions: HEK293 cells expressing PXR LBD, read-out: Efficacy
[13] = Volume of distribution at steady state in Sprague-Dawley rat at 1 mg/kg, iv; format: ADME, organism-based; conditions: in vivo, read-out: Vdss
[14] = AUC (0 to infinity) in Sprague-Dawley rat at 1 mg/kg, iv; format: ADME, organism-based; set-up: dose 1 mg/kg, time infinity, route intravenous; conditions: in vivo
[15] = molecular target: T4, Nuclear receptor ROR-beta (Homo sapiens, UniProt Q92753); test: Binding affinity to recombinant human RORbeta LBD (201 to 452 residues) expressed in Escherichia coli BL21 (DE3) GOLD by 1,8-ANS dye-based thermofluor assay
T4 sequence (Q92753 whole entry): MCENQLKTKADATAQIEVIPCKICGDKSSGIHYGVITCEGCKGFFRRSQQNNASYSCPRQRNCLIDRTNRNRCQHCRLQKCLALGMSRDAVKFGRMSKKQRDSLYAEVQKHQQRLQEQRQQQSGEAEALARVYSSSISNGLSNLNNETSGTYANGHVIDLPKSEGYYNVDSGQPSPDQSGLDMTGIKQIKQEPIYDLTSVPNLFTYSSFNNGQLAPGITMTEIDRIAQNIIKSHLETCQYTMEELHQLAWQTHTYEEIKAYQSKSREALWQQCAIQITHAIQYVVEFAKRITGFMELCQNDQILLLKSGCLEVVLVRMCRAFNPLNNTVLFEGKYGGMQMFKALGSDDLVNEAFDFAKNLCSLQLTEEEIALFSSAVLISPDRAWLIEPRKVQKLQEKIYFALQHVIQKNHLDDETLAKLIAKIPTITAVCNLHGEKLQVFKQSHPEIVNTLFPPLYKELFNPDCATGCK

[16] = Half life in Sprague-Dawley rat at 1 mg/kg, iv; format: ADME, organism-based; conditions: in vivo
[17] = molecular target: T2, PXR (NR1I2); test: […] at PXR LBD (unknown origin) expressed in HEK293 cells […] at 5 uM after 16 hrs by luciferase reporter gene assay relative to rifampicin; format: ADME, cell-based; conditions: HEK293 cells expressing PXR LBD, read-out: Efficacy
[18] = Initial plasma concentration in Sprague-Dawley rat at 1 mg/kg, iv; format: ADME, organism-based
[19] = Clearance in Sprague-Dawley rat at 1 mg/kg, iv; format: ADME, organism-based; conditions: in vivo
[20] = AUC (0 to infinity) in Sprague-Dawley rat at 5 mg/kg, po; format: ADME, organism-based; set-up: dose 5 mg/kg, route oral, time infinity; conditions: in vivo
[21] = Cmax in Sprague-Dawley rat at 5 mg/kg, po; format: ADME, organism-based; set-up: dose 5 mg/kg, route oral; conditions: in vivo
[22] = Tmax in Sprague-Dawley rat at 5 mg/kg, po; format: ADME, organism-based; conditions: in vivo
[23] = Oral bioavailability in Sprague-Dawley rat at 5 mg/kg; format: ADME, organism-based; conditions: in vivo
[24] = Terminal half life in Sprague-Dawley rat at 5 mg/kg, po; format: ADME, organism-based; conditions: in vivo, read-out: beta t1/2 (converted)

Cc1c(S(=O)(=O)NC(C)(C)C)ccc(-c2sc(C(=O)N[C@H]3C[C@H](C(=O)O)C3)nc2CC2CCCCC2)c1OC(F)F
solubility thermodynamic at 10000 µM [1]: < 1 µM | half-life [2]: 0.617 h | solubility thermodynamic [3]: 50 µM (≈ 30.7 µg/mL) | INH [4]: > 10 µM | INH [5]: > 10 µM | INH [6]: 4 µM | Emax at 16 h, 1 µM [7]: 86% | INH [8]: > 10 µM | INH [9]: 8.7 µM | INH [10]: > 10 µM | half-life [11]: 0.433 h | Emax at 16 h, 10 µM [12]: 173%

CC(C)(C)NS(=O)(=O)c1ccc(-c2sc(C(=O)N[C@H]3C[C@H](C(=O)O)C3)nc2CC2CCCCC2)c(C(F)(F)F)c1
solubility thermodynamic at 10000 µM [1]: < 4 µM | half-life [2]: > 3 h | solubility thermodynamic [3]: > 400 µM | INH [4]: > 10 µM | INH [5]: > 10 µM | INH [6]: 3.4 µM | INH [8]: > 10 µM | INH [9]: > 10 µM | INH [10]: > 10 µM | half-life [11]: 2.33 h

C[C@H](NS(=O)(=O)c1ccc(-c2sc(C(=O)NCC(C)(C)O)nc2CC2CCC2)c(C(F)F)c1)C(F)(F)F
Vd [13]: 5.4 L/kg | AUC(0-inf) [14]: 198 ng·h/mL | solubility thermodynamic at 10000 µM [1]: < 4 µM | half-life [2]: > 3 h | pKd [15]: < 4.14 | half-life [16]: 1.9 h | Emax at 16 h, 5 µM [17]: 144% | INH [4]: 5.4 µM | INH [5]: > 10 µM | C0 [18]: 310 ng/mL | INH [6]: > 10 µM | Emax at 16 h, 1 µM [7]: 74% | INH [8]: 3 µM | clearance [19]: 46.7 mL/min/kg | INH [9]: 2.7 µM | AUC(0-inf) [20]: 321 ng·h/mL | INH [10]: > 10 µM | Cmax [21]: 57 ng/mL | Tmax [22]: 1.7 h | bioavailability [23]: 32.5% | half-life [24]: 3.2 h | half-life [11]: 0.95 h

CC(C)(C)NS(=O)(=O)c1ccc(-c2sc(C(=O)N[C@H]3C[C@H](C(=O)O)C3)nc2CC2CCCCC2)c(Cl)c1
Vd [13]: 2.3 L/kg | AUC(0-inf) [14]: 162 ng·h/mL | solubility thermodynamic at 10000 µM [1]: 6.6 µM (≈ 3.75 µg/mL) | half-life [2]: 1.68 h | pKd [15]: < 4.12 | half-life [16]: 0.5 h | INH [4]: > 10 µM | INH [5]: > 10 µM | C0 [18]: 2300 ng/mL | INH [6]: 3.5 µM | Emax at 16 h, 1 µM [7]: 101% | INH [8]: > 10 µM | clearance [19]: 107 mL/min/kg | INH [9]: > 10 µM | AUC(0-inf) [20]: 328 ng·h/mL | INH [10]: > 10 µM | Cmax [21]: 130 ng/mL | Tmax [22]: 0.8 h | bioavailability [23]: 20% | half-life [24]: 2.1 h | half-life [11]: 1.22 h | Emax at 16 h, 10 µM [12]: 178%

C[C@H](NS(=O)(=O)c1ccc(-c2sc(C(=O)NCC(C)(C)O)nc2CC2CC2)c2ccccc12)C(F)(F)F
Vd [13]: 29.5 L/kg | AUC(0-inf) [14]: 415 ng·h/mL | solubility thermodynamic at 10000 µM [1]: < 4 µM | half-life [2]: > 3 h | half-life [16]: 10.2 h | Emax at 16 h, 5 µM [17]: 188% | INH [4]: > 10 µM | INH [5]: > 10 µM | C0 [18]: 119 ng/mL | INH [6]: 3.3 µM | Emax at 16 h, 1 µM [7]: 122% | INH [8]: 2 µM | clearance [19]: 40.7 mL/min/kg | INH [9]: 0.4 µM | AUC(0-inf) [20]: 314 ng·h/mL | INH [10]: > 10 µM | Cmax [21]: 55 ng/mL | Tmax [22]: 0.8 h | bioavailability [23]: 14.8% | half-life [24]: 6.9 h | half-life [11]: 0.9 h
